Results as given in paper PMC7226106, “Population Pharmacokinetics/Pharmacodynamics of Dabrafenib Plus Trametinib in Patients with BRAF-Mutated Metastatic Melanoma” (Cancers, 2020).
Read-outs that look alike come from different tables or passages of the source.

What was measured:
[1] = Model-estimated systemic exposure (AUC) in BRAF^V600-mutated MM patients treated with CombiDT; details: for AUC: human, plasma, oral
Protocol: (§1) Pharmacokinetic/pharmacodynamic analysis was conducted in BRAF^V600-mutated MM patients concomitantly treated with CombiDT. Regarding safety, the onset of DLT was considered as the clinical endpoint. A DLT was defined as any toxicity leading to dose reduction or temporary or permanent discontinuation of treatment. Regarding survival, the primary end point was progression free survival (PFS), the time from DAB and TRA treatment initiation to documented progression event (either clinical or radiological progression) or death from any cause. The secondary end-point was overall survival (OS), defined as the time from DAB and TRA treatment initiation to death from any cause. Radiographic evidence of progression was defined according to modified Response Evaluation Criteria in Solid Tumor (RECIST) v1.1 [41].
Systemic exposures to DAB, OHD, and TRA (AUCDAB, AUCOHD, and AUCTRA, respectively) were calculated with classic equations, composite DAB and OHD AUC (AUCDAB+OHD) as previously explained and AUCOHD/DAB as the ratio of AUCOHD over AUCDAB. Univariate Fisher and Wilcoxon models were performed to identify which parameters could contribute to the onset of DLT. The following variables were tested: sex, age at treatment initiation, BMI, Eastern Cooperative Oncology Group Performance Status (ECOG PS: grade 0-1 vs ≥2), lactate dehydrogenase (LDH) level (<1.5N vs. ≥1.5N), AUCDAB, AUDOHD, AUCDAB+OHD, and AUCTRA.
Multivariate Cox models according to a stepwise procedure were tested including all variables which were significant at 5% level in the univariate analyses. All the pharmacokinetic/pharmacodynamic analyses were performed using R program v3.6.1 with RStudio v1.1.383 (http://www.r-project.org).

[2] = Population pharmacokinetic model of dabrafenib/hydroxy-dabrafenib (NONMEM) from plasma concentrations; assay type: in vivo, human (patients); details: for Vd/F: both sexes, human, plasma, oral, 150 mg twice daily, read-out: V2/F, apparent central volume of distribution of DAB
Description: Seventy-three outpatients treated with DAB were enrolled from July 2015 to June 2017 in this observational multicentric study including three hospitals of the Assistance Publique—Hôpitaux de Paris (Cochin, Henri Mondor, and Avicenne). To be eligible, patients needed to meet the following criteria: a minimal age of 18 years, metastatic BRAF^V600-mutated solid tumors, treatment with DAB or CombiDT with at least one available DAB concentration measurement.
DAB, dabrafenib-d9 (internal standard, IS), and TRA were purchased from LGC Standards (Molsheim, France). A custom synthesis was developed by Shanghai Medicilon (Shanghai, China) for OHD. The plasma concentrations were assayed using a validated high-performance liquid chromatography-tandem mass spectrometry (HPLC-MS/MS) (ATSQ Quantum Ultra®mass spectrometer, ThermoFisher, Les Ulis, France). Chromatographic separation was performed on Accucore® C18 (2.1 × 50 mm; 2.6 µm) analytical column (ThermoFisher Scientific, Les Ulis, France) associated with a guard column packed with the same bonded phase. Two hundred microliters (µL) aliquot of plasma (calibration standard, internal quality control or patient sample) was mixed with 20 µL of IS solution. Then 600 µL acetonitrile with 1% (v/v) formic acid was added. Samples were mixed and centrifuged, and the supernatant was evaporated and recovered with 200 µL of mobile phase: water/methanol (70:30%, v/v) with formic acid (0.1% v/v). Ten microliters of this mixture were injected into the HPLC-MS/MS system. The calibration standards ranged from 10 to 2000 ng/mL for DAB and OHD and from 5 to 50 ng/mL for TRA.
Blood samples were collected in heparinized tubes during the treatment course, and the exact sample time was recorded. Plasma was separated by centrifugation (3000 rpm, 5 min), and stored at −20 °C until analysis.
The non-linear mixed effects modeling program NONMEM v7.4.1 [34] with the Perl-Speaks NONMEM (PsN) Toolkit v4.8.0 [35] was used to build DAB/OHD and TRA models. Pirana v2.9.2 was used to assist in model development. […] Molar units were used for DAB/OHD analyses. Plasma samples with concentrations below the lower limit of quantification of the assay, non-reliable time information about blood sampling, or without dose information were excluded from the analysis.
A stepwise strategy was used to identify the base models that best fitted DAB/OHD and TRA pharmacokinetic data. Different structural models such as one or two compartments, with linear absorption with or without lag time, were compared. DAB and OHD were modeled simultaneously testing multi-compartment models for both compounds. We hypothesized that DAB was cleared by complete oxidation to OHD, since it is not eliminated as unchanged molecule in urine and accounts for less than 22% in feces. Moreover, the first-order absorption rate constant (ka) of DAB was fixed to 1.8 h^−1 according to a previously published value to allow an adequate estimate of all pharmacokinetic parameters. Since DAB and TRA are administered orally, the pharmacokinetic parameters represent apparent values. Exponential errors following a log-normal distribution were assumed for the description of IIV of all the pharmacokinetic parameters. Inter-occasion variability (IOV) was tested in both DAB/OHD and TRA models to assess differences in individual parameters across study occasions. Additive, proportional, and mixed error models were compared to depict the residual unexplained variability (RUV) for both drugs and metabolite. The correlation between DAB and OHD data was tested using the L2 item in NONMEM. […]

[3] = test system: BRAF^V600-mutated MM patients; test: Safety: adverse events and dose-limiting toxicities (DLT) under CombiDT
Protocol: Patients initiated DAB at the recommended daily dose of 150 mg twice daily. In patients treated with CombiDT, TRA was started at 2 mg once daily. Reduced starting doses were allowed at physician discretion based on comorbidities and patients’ general condition. All AE were graded using the National Cancer Institute Common Toxicity Criteria v4.0. DAB treatment was continued until disease progression, unacceptable toxicity, or unfitness to receive it.

[4] = set-up: method as in earlier work; details: preclinical data; cited from earlier work
[5] = test system: BRAF^V600-mutated metastatic melanoma; test: Survival (PFS, OS) and Cox exposure-survival analysis under CombiDT; assay type: in vivo, human (patients)
Protocol: as §1
Multivariate Cox models according to a stepwise procedure were tested including all variables which were significant at 5% level in the univariate analyses.

[6] = cited from earlier work
[7] = set-up: method as in PMID 24408395; details: fixed in base and final model and bootstrap; cited from earlier work
[8] = bootstrap median (n = 500 samples)
[9] = reference models built upon clinical trial data

CC(C)(C)c1nc(-c2cccc(NS(=O)(=O)c3c(F)cccc3F)c2F)c(-c2ccnc(N)n2)s1 [DAB, Dabrafenib]
AUC ([1]; AUC, median (range), patients with DAB-related DLT (n = 12), last AUC before onset of DLT): 9620 ng·h/mL | AUC ([1]; AUC, median (range), patients without DAB-related DLT (n = 40), average AUC over treatment course): 7480 ng·h/mL | AUC ([1]; mean AUCDAB, after DAB dose reduction, n = 8): 5040 ng·h/mL | AUC ([1]; mean AUCDAB, before DAB dose reduction, n = 8): 9010 ng·h/mL | AUC ([1]; median AUCM3 (mean AUC during the first three months of treatment), 30 MM patients of the exposure-survival analysis): 7720 ng·h/mL | decrease in mean AUCDAB after DAB dose reduction ([1]; n = 8): 1.8 fold | difference in pharmacokinetics ([2]; DAB monotherapy vs. combiDT (ΔOFV = −2.9, p > 0.05)): did not differ | IIV CL/F, interindividual variability (coefficient of variation) ([2]; base DAB/OHD model): 21.9% | IIV V2/F, interindividual variability (coefficient of variation) ([2]; base DAB/OHD model): 43.0% | IOV, inter-occasion variability on CL/F (coefficient of variation) ([2]; base DAB/OHD model): 17.2% | RUV of DAB, residual unexplained variability (proportional) ([2]; base DAB/OHD model): 49.2% | Tlag, lag time ([2]; base DAB/OHD model): 0.50 h | CL/F, apparent clearance of DAB ([2]; base DAB/OHD model, n = 73, steady state): 17.7 L/h | CL/F, apparent clearance of DAB [2, 8]: 19.2 L/h | IIV CL/F, interindividual variability (coefficient of variation) [2, 8]: 14.4% | IIV V2/F, interindividual variability (coefficient of variation) [2, 8]: 69.4% | IOV, inter-occasion variability on CL/F (coefficient of variation) [2, 8]: 17.0% | RUV of DAB, residual unexplained variability (proportional) [2, 8]: 48.2% | Tlag, lag time [2, 8]: 0.499 h | Vd/F ([2]; base DAB/OHD model): 39.5 L | Vd/F [2, 8]: 38.3 L | Vd/F ([2]; final DAB/OHD model): 39.1 L | reduction of CL/F ([2]; comparing 20-year-old to 90-year-old patients): 55% | difference in pharmacokinetics ([2]; concomitant proton-pump inhibitor (PPI) intake (ΔOFV = −3.5, p > 0.05)): did not differ | CL/F, apparent clearance of DAB ([2]; final DAB/OHD model): 19.3 L/h | IIV CL/F, interindividual variability (coefficient of variation) ([2]; final DAB/OHD model): 16.0% | IIV V2/F, interindividual variability (coefficient of variation) ([2]; final DAB/OHD model): 50.8% | IOV, inter-occasion variability on CL/F (coefficient of variation) ([2]; final DAB/OHD model): 17.4% | RUV of DAB, residual unexplained variability (proportional) ([2]; final DAB/OHD model): 48.7% | Tlag, lag time ([2]; final DAB/OHD model): 0.499 h | base model variance of clearance explained by covariates (sex, age) ([2]; in vivo): 47% | inter-occasion variability (IOV) on CL/F ([2]; model building): 17% | reduction of CL/F ([2]; women vs. men): 17% | patients in whom the drug dose was reduced ([3]; 52 MM patients): 15% | patients in whom the drug was discontinued permanently ([3]; 52 MM patients): 8% | patients who experienced a drug-related DLT ([3]; 52 MM patients): 23% | median time to onset of drug-related DLT ([3]; human, in vivo): 110 days | passage of the intact blood brain barrier [4]: may cross intact blood brain barrier | patients who discontinued DAB treatment because of cerebral progression ([5]; present cohort): 72% | Risk of Death, HR (CI95%) for AUCM3 ([5]; univariate Cox model, n = 30): 1.02 (0.75–1.39) | Risk of Progression, HR (CI95%) for AUCM3 ([5]; univariate Cox model, n = 30): 1.04 (0.82–1.32) | unchanged molecule in feces [6]: less than 22% | first-order absorption rate constant (ka) ([6]; previously published value, fixed in the model): 1.8 h⁻¹ | CL/F [6, 9]: 17.0 L/h | Q/F [6, 9]: 3.30 L/h | lag time [6, 9]: 0.482 h | ka, first-order absorption rate constant [7]: 1.8 fixed 1/h
